Data on 10 molecules can be found in patent US8450313B2, “2,3-diaryl- or heteroaryl-substituted 1,1,1-trifluoro-2-hydroxypropyl compounds” (Hoffmann-La Roche Inc., priority 2009, dated 2013).

For the test, the target named is T1, full length human recombinant glucocorticoid receptor (Homo sapiens, UniProt P04150).
T1 construct: It contains some partially purified full length human recombinant glucocorticoid receptor; purchased Panvera/Invitrogen PV4302
T1 sequence (P04150 1-777): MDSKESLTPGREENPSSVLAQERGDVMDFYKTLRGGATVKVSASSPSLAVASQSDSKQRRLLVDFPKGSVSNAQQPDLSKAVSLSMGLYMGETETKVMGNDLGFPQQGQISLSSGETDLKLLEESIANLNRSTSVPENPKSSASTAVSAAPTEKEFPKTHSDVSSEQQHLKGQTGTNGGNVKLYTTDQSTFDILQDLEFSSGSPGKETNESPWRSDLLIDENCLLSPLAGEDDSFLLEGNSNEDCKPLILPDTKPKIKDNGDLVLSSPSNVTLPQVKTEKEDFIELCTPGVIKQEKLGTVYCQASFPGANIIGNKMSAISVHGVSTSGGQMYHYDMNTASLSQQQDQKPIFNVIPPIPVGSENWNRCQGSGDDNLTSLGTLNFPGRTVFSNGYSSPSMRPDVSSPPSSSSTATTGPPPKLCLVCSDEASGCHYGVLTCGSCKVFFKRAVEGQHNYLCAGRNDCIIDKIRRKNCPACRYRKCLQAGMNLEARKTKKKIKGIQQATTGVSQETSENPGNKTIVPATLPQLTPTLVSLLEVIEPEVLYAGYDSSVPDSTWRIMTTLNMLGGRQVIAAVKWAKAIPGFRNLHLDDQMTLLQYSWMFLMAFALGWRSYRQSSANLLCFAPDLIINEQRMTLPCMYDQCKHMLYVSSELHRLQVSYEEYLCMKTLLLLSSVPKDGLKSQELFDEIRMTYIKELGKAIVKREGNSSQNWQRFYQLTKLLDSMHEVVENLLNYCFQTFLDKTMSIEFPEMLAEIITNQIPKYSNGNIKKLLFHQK
Kind of test: Glucocorticoid Receptor Binding Assay (Glucocorticoid Receptor Competitor Assay far red kit, fluorescence polarization). The following applies: competition with fluorescent GR ligand Fluormone GS Far Red, 3 hours at 22° C., pH 7.4; Ki calculated from IC50 by Cheng-Prusoff. A digest of the protocol: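 Compounds in serial dilution (from intermediate 4.2% DMSO stock) displace Fluormone GS Far Red from full-length human recombinant GR with stabilizing peptide, pH 7.4, incubated 3 hours at 22° C dark. Polarized fluorescence (610–660 nm) gives IC50 via sigmoidal fit, converted to Ki by Cheng-Prusoff.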

Regarding `C[C@@H](c1ccc(Oc2ccc(C(=O)O)c(Cl)c2)cc1Cl)[C@](O)(c1ccc2c(c1)n(C)c(=O)n2C)C(F)(F)F` (stereo in doubt) [Example 90, 2-Chloro-4-{3-chloro-4-[2-(1,3-dimethyl-2-oxo-2,3-dihydro-1H-benzoimidazol-5-yl)-3,3,3-trifluoro-2-hydroxy-1-methyl-propyl]-phenoxy}-benzoic acid], the inhibition constant (Ki) is 0.4 nM.

Turning to `C[C@H](c1ccc(Oc2c(C(=O)O)ccnc2Cl)cc1Cl)[C@@](O)(c1ccc2c(c1)n(C)c(=O)n2C)C(F)(F)F` (stereo in doubt) [Example 113, 2-Chloro-3-{3-chloro-4-[2-(1,3-dimethyl-2-oxo-2,3-dihydro-1H-benzoimidazol-5-yl)-3,3,3-trifluoro-2-hydroxy-1-methyl-propyl]-phenoxy}-isonicotinic acid], the Ki was 6.2 nM. Then `C[C@H](c1ccc(Oc2ccc(C(=O)O)c(Cl)n2)cc1Cl)[C@@](O)(c1ccc2oc(=O)n(C)c2c1)C(F)(F)F` (relative stereo) [Example 184, 2-Chloro-6-{3-chloro-4-[3,3,3-trifluoro-2-hydroxy-1-methyl-2-(3-methyl-2-oxo-2,3-dihydro-benzooxazol-5-yl)-propyl]-phenoxy}-nicotinic acid], with 0.8 nM; and `C[C@H](c1ccc(Oc2ccc(OCC(=O)O)cc2)cc1Cl)[C@@](O)(c1ccc2c(c1)n(C)c(=O)n2C)C(F)(F)F` (stereo in doubt) [Example 93, (4-{3-Chloro-4-[2-(1,3-dimethyl-2-oxo-2,3-dihydro-1H-benzoimidazol-5-yl)-3,3,3-trifluoro-2-hydroxy-1-methyl-propyl]-phenoxy}-phenoxy)-acetic acid], with 0.3 nM. Then `C[C@H](c1ccc(Oc2ccc(C(=O)O)c(F)c2)cc1Cl)[C@@](O)(c1ccc2c(c1)N(C)C(=O)CO2)C(F)(F)F` [Example 57], with 1.3 nM; and `C[C@H](c1ccc(Oc2ccc(C(=O)O)c(Cl)c2)cc1Cl)[C@@](O)(c1ccc2c(c1)N(C)C(=O)CO2)C(F)(F)F` [Example 218, 2-Chloro-4-{3-chloro-4-[(1R,2R)-3,3,3-trifluoro-2-hydroxy-1-methyl-2-(4-methyl-3-oxo-3,4-dihydro-2H-benzo[1,4]oxazin-6-yl)-propyl]-phenoxy}-benzoic acid], with 119 nM; and `C[C@@H](c1ccc(Oc2ccc(C(=O)O)c(Cl)c2)cc1Cl)[C@](O)(c1ccc2c(c1)N(C)S(=O)(=O)N2C)C(F)(F)F` (relative stereo) [Example 161, 2-Chloro-4-{3-chloro-4-[2-(1,3-dimethyl-2,2-dioxo-2,3-dihydro-1H-2λ6-benzo[1,2,5]thiadiazol-5-yl)-3,3,3-trifluoro-2-hydroxy-1-methyl-propyl]-phenoxy}-benzoic acid], with 3.6 nM.

As for `CCOC(=O)c1cccc(Oc2ccc(Cl)c([C@H](C)[C@](O)(c3ccc4c(c3)N(C)C(=O)CO4)C(F)(F)F)c2)c1` (relative stereo) [Example 5, 3-{4-Chloro-3-[3,3,3-trifluoro-2-hydroxy-1-methyl-2-(4-methyl-3-oxo-3,4-dihydro-2H-benzo[1,4]oxazin-6-yl)-propyl]-phenoxy}-benzoic acid ethyl ester], the inhibitory constant (Ki) was 7.5 nM.

With `COC(=O)c1ccc(-c2ccc([C@@H](C)[C@@](O)(c3ccc4oc(=O)n(C)c4c3)C(F)(F)F)c(Cl)c2)cc1F` (relative stereo) [Example 117, 3′-Chloro-3-fluoro-4′-[3,3,3-trifluoro-2-hydroxy-1-methyl-2-(3-methyl-2-oxo-2,3-dihydro-benzooxazol-5-yl)-propyl]-biphenyl-4-carboxylic acid methyl ester], the Ki is 2.2 nM. With `C[C@H](c1ccc(-c2ccc(C(=O)O)c(F)c2)cc1Cl)[C@@](O)(c1ccc2c(c1)NC(=O)CO2)C(F)(F)F` (relative stereo) [Example 72, 3′-Chloro-3-fluoro-4′-[3,3,3-trifluoro-2-hydroxy-1-methyl-2-(3-oxo-3,4-dihydro-2H-benzo[1,4]oxazin-6-yl)-propyl]-biphenyl-4-carboxylic acid] the figure was 222 nM.

As usually defined, the Ki is a dissociation constant, usually derived from enzyme kinetics or from competition with a known ligand.
